{"source": "patent US20230028293A1", "about": "“MULTIPLE MYELOMA COMBINATION THERAPIES BASED ON PROTEIN TRANSLATION INHIBITORS AND IMMUNOMODULATORS” (The Regents of the University of Colorado, a body corporate, priority 2019, published 2023)", "key": {"MM1.S cells": {"system": "MM1.S cells", "experiment": "Whole cell proteomics of treated MM cells", "type": "cell-based", "conditions": "omacetaxine 4 h, pomalidomide 24 h, staggered combination", "method": "Whole cell proteomics of MM cells treated with the omacetaxine/pomalidomide combination were compared to single agent treatments at a timepoint before substantial apoptosis or cell death began. Although omacetaxine is rapidly cytotoxic to MM cells, the cytotoxicity of pomalidomide occurs after a longer delay, with apoptosis and cell death beginning at 24 h (FIG. 10A). […] For proteomics, MM1.S cells were treated in triplicate with omacetaxine for 4 h, pomalidomide for 24 h, or the staggered combination treatment and compared to untreated controls.\nCells were lysed with RIPA buffer (Thermo Fisher Scientific) and digested according to the FASP protocol. Recovered peptides were dried, desalted, and concentrated on Thermo Scientific Pierce C18 Tips. Cell lysates were analyzed using an Orbitrap Fusion mass spectrometer connected to an EASY-nLC 1200 system (Thermo Fisher Scientific) with a nanoelectrospray ion source. Data was acquired using the Xcaliburm (version 4.1) software. MS/MS spectra were extracted, and Proteome Discoverer Software (ver. 2.1.0.62) was used to convert the raw data into mgf files. The files were then searched against a human database using an in-house Mascot server (Version 2.6, Matrix Science). Scaffold (version 4.8, Proteome Software, Portland, Oreg.) was used to validate MS/MS based peptide and protein identifications. […]"}, "c-MYC": {"system": "c-MYC", "experiment": "Quantitative flow cytometry of c-MYC antigen density", "type": "cell-based", "conditions": "24 h treatment"}, "[1]": {"system": "primary MM cells from patient bone marrow aspirates", "experiment": "cells", "method": "The effect of omacetaxine in primary patient samples was tested by incubating marrow mononuclear cells (MNCs) from patient bone marrow aspirates for 48 h and measuring the number of surviving MM cells by multiparameter flow cytometry.\nDe-identified primary myeloma samples were thawed in a 37° C. water bath and then incubated with 100 μg DNase I (Sigma-Aldrich) for 90 sec. Samples were washed twice with 10 mL Dulbecco's Phosphate Buffered Saline without calcium and magnesium (DPBS). Cells were cultured in RPMI1640 medium containing L-glutamine with 10% FBS and 100 U/mL penicillin, 100 ug/mL streptomycin (Thermo Fisher Scientific), and 2 ng/mL interleukin 6 IL-6 (PreproTech) at 37° C. for 2 h. Cells were then transferred to 96-well plates at […] cells/mL (90,000 MNCs per well) and treated for 48 h. Stock solutions of drug were prepared at 10 mM in dimethylsulfoxide (DMSO) and stored at −20° C. until use.\nAfter 48 h treatment, the primary samples were washed in 1× cold DPBS and re-suspended in BD Brilliant Stain Buffer (BD Biosciences, San Jose Calif.) in a 96-well V-bottom plate. Cells were treated with FcR Blocking Reagent (Miltenyi Biotec, San Diego Calif.) for 5 min and then surface stained with anti-CD19-BV786 anti-CD45-BV510, anti-CD38-PerCP-Cy5.5, anti-CD138-BV421, and anti-CD319-Alexa647 or anti-CD46-Alexa647 antibodies for 10 min on ice. Intracellular staining with anti-kappa-BV605 and anti-lambda-PE light chains was performed after paraformaldehyde fixation and permeabilization. All flow cytometry antibodies were purchased from BD Biosciences. After staining, samples were washed and resuspended with 100 μl DPBS containing 2% FBS (FACS buffer). Viability staining was done using the LIVE/DEAD Fixable Near-IR Dead Cell Stain Kit (Invitrogen, Carlsbad Calif.) by adding 1 μl of 10-fold diluted stain to each well. Flow cytometry data was collected using a BD FACSCelesta Multicolor Cell Analyzer (BD Biosciences, San Jose Calif.) equipped with a HTS. For each sample a fixed volume of 175 μL was collected by the HTS. Flow cytometry data analysis was completed using FlowJo software (FlowJo LLC, Ashland Oreg.). Myeloma populations were analyzed by gating CD19− CD45+/−CD38+ CD138+ based on the cells expressing clonal light chain restriction in each sample."}, "[2]": {"system": "MM cell lines (H929, MM.1S, U266)", "experiment": "Seahorse glycolysis stress test (ECAR)", "type": "cell-based", "conditions": "after 4 h", "method": "MM cell lines were incubated with pomalidomide for 24 h, omacetaxine for 4 h, or in staggered combination. The cells were washed and resuspended in Agilent Seahorse XF DMEM Medium, pH 7.4 (Agilent Technologies, Santa Clara, Calif.). Glycolytic flux, extracellular acidification rate (ECAR) was measured on a Seahorse XFe96 Analyzer using the Seahorse XF Glycolysis Stress Test Kit according to manufacture instructions (Agilent Technologies)."}, "[3]": {"system": "protein translation in MM cell lines and primary MM cells", "experiment": "OP-Puro protein translation assay in vitro", "type": "cell-based", "method": "To examine whether myeloma cells depend on inherently high protein synthesis, the O-Propargyl-puromycin (OP-Puro) assay was used to measure the rate of amino-acid incorporation into translating ribosomes by flow cytometry.\nProtein synthesis levels were determined in vitro utilizing the puromycin analog O-propargyl-puromycin (OP-Puro) in the protein synthesis assay kit (Cayman Chemical) according to manufacturer instructions. For in vivo protein synthesis, engrafted NSG mice were injected IP with 500 μg puromycin (Gibco), then euthanized after 1.5 h, marrow was flushed, and cells stained with anti-puromycin antibody (12D10, Alexa-488, Millipore Sigma), followed by flow cytometry."}}, "data": [{"smiles": "COC(=O)C[C@](O)(CCCC(C)(C)O)C(=O)O[C@@H]1C(OC)=C[C@]23CCCN2CCc2cc4c(cc2[C@H]13)OCO4", "note": "[omacetaxine, Omacetaxine mepesuccinate]", "values": [{"measurement": "proteins among the most downregulated versus untreated controls", "setting": "MM1.S cells", "result": "IGL1 and JCHAIN"}, {"measurement": "c-MYC protein level in MM cell lines", "setting": "c-MYC", "result": "decreases"}, {"measurement": "cytotoxicity in relation to MCL1 priming (BH3 profiling) of primary samples", "setting": "[1]", "result": "potent anti-myeloma activity in samples that were not MCL1 primed"}, {"measurement": "patient samples with >50% reduction in viable MM cells (39/50)", "setting": "[1]; 50 nM, 48 h, 50 patient samples", "result": 78, "unit": "%"}, {"measurement": "cross-resistance in relapsed/refractory patients resistant to PI and IMiDs", "setting": "[1]; 50 nM, 48 h ex vivo", "result": "did not show cross-resistance"}, {"measurement": "EC50", "setting": "[1]; Homo sapiens, 48 h, read-out: EC50 of decrease in MM cell viability ex vivo", "result": "25 to 100", "unit": "nM"}, {"measurement": "effect on metabolism of myeloma cell lines (Seahorse, ECAR)", "setting": "[2]", "result": "shut down metabolism"}, {"measurement": "translation in primary MM samples after treatment", "setting": "[3]; 50 nM, 2.5 h, 14 primary samples, to near MNC levels", "result": "significantly reduced"}, {"measurement": "EC50", "setting": "[3]; Homo sapiens, NCI-H929, 2.5 h, H929 MM cell line and primary patient MM cells, read-out: EC50 of inhibition of protein translation", "result": 9, "unit": "nM"}, {"measurement": "ability to inhibit translation in myeloma cell lines", "setting": "[3]; omacetaxine 50 nM 2.5 h, bortezomib 6 h, 24 h, 48 h", "result": "observed across all myeloma cell lines tested"}]}]}
